One series deals with DU-145. As to the kind of experiment: Antiproliferative activity against human DU145 cells by [3H]thymidine incorporation assay. It counts as functional, cell-based. (Incorporation of labelled thymidine or its analogues reports DNA synthesis.)
Series [1] addresses T1, Hypoxia-inducible factor 1-alpha (Homo sapiens, UniProt Q16665). As to the kind of experiment: Inhibition of HIF1alpha in human U251 cells under normoxic condition by luciferase reporter gene assay. It counts as cell-based, U-251. Background: A reporter such as luciferase makes a cellular process visible.
Target sequence in this assay (Q16665 whole entry): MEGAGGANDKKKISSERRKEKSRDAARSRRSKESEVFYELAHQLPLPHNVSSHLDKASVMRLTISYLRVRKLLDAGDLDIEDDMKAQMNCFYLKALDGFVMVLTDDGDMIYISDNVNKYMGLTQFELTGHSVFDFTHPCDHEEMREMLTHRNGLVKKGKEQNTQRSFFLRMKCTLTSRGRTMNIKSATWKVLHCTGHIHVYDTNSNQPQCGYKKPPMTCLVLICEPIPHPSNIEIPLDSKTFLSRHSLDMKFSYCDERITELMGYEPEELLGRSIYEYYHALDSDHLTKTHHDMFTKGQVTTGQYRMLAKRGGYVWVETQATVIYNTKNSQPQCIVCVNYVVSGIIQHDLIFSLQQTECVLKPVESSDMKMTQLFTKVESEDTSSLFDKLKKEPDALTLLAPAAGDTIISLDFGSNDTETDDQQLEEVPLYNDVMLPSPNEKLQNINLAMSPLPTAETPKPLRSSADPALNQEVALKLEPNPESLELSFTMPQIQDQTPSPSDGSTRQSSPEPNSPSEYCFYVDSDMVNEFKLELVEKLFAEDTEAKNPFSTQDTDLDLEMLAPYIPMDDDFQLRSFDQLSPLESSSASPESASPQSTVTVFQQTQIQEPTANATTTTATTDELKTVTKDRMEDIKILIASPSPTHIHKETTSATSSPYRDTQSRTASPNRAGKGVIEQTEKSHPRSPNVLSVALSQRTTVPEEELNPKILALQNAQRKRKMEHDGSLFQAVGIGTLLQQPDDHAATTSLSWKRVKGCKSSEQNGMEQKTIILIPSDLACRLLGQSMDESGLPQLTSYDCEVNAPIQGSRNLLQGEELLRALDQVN
Another series concerns PANC-1. Kind of series: Antiproliferative activity against human PANC1 cells by [3H]thymidine incorporation assay. It counts as functional, cell-based.
Series [2] concerns PC-3. Kind of series: Inhibition of HIF1alpha expression in human PC3 cells by Western blot analysis. The format is functional, cell-based. Background: In western blotting, separated proteins are transferred to a membrane and probed.
Series [3] deals with T1, Hypoxia-inducible factor 1-alpha. As to the kind of experiment: Inhibition of HIF1alpha in human U251 cells under hypoxic condition by luciferase reporter gene assay. The format is cell-based, U-251.
Target sequence in this assay (Q16665 whole entry): as above
The nature of series [4]: Antiproliferative activity against human WI38 cells by [3H]thymidine incorporation assay. The format is cell-based. To be noted: WI-38.
The next series concerns OVCAR-3. Kind of series: Antiproliferative activity against human OVCAR-3 cells by [3H]thymidine incorporation assay. The format is functional, cell-based. The conditions noted are these: OVCAR-3, 3 h.
The subject of the next series is Mus musculus. Kind of series: Toxicity in SCID mouse xenografted with human PC3 cells assessed as weight loss at 50 mg/kg, po BID for 19 days measured on day 25. It counts as organism-based, PC-3. Set-up: dose 50 mg/kg, route oral. The conditions noted are these: in vivo, 456 h.
Series [5] deals with U-251. Kind of series: Inhibition of HIF1alpha expression in human U251 cells by Western blot analysis. It counts as functional, cell-based.
Series [6] deals with PC-3. Kind of series: Antiproliferative activity against human PC3 cells by [3H]thymidine incorporation assay. It counts as functional, cell-based.
Series [7] deals with U-251. Kind of series: Antiproliferative activity against human U251 cells by [3H]thymidine incorporation assay. It counts as functional, cell-based.
The next series has as its system HUVEC. Kind of series: Antiangiogenic activity in HUVEC assessed as inhibition of tube formation. It counts as functional, cell-based. To be noted: Homo sapiens.
In series [8] the test system is PC-3. Kind of series: Antitumor activity against human PC3 cells xenografted in SCID mouse assessed as tumor growth inhibition at 50 mg/kg, po BID for 19 days measured on day 20. The format is functional, organism-based. Further details: dose 50 mg/kg.
The test system of a further series is MRC5. Kind of series: Antiproliferative activity against human MRC5 cells by [3H]thymidine incorporation assay. It counts as cell-based.
Series [9] concerns the target T1, Hypoxia-inducible factor 1-alpha. Kind of series: Inhibition of HIF1-alpha-mediated VEGF mRNA expression in human PC3 cells under hypoxic condition by RT-PCR analysis. It counts as cell-based. To be noted: PC-3.
Target sequence in this assay (Q16665 whole entry, looked up): as the sequence (Q16665 whole entry) above
The test system of another series is HCT-116. As to the kind of experiment: Antiproliferative activity against human HCT116 cells by [3H]thymidine incorporation assay. The format is functional, cell-based.

Structures are written as SMILES. Calls of active or inactive are those of the source. The calls are words filed in the database; no cut-off is given here. Bounds are passed on as bounds.

On to `O=C(CCl)Nc1ccc(-c2nc(O)cc(C(F)(F)F)n2)nc1`, for which the IC50 – broadly, the concentration at which inhibition is half-maximal – in the series on DU-145 turned out to be 1.2 µM; in series [1], 8 µM; in the series on PANC-1 it was 2 µM; in series [3], 0.8 µM; in [4], 6.5 µM; in the series with OVCAR-3, 3.5 µM. The IC50 in the series on PC-3 [6] was 1 µM; with U-251 [7] it was 1.5 µM; with MRC5, greater than 10 µM; with HCT-116 it was 0.8 µM. The inhibition entry (in the series on PC-3 [2]; in the series on U-251 [5]; in the series on HUVEC; in series [9]) was “Dose-dependent effect” each time. In the series with Mus musculus, the Activity result is listed as “Non-toxic”. The “growth inhibition (GI)” value in the series with PC-3 [8] was “Active”.

Take `CCc1c(C)nc(-c2ccc(N)cn2)nc1O`: in [3], the concentration for half-maximal inhibition (IC50) was greater than 30 µM.

In turn, `Nc1ccc(-c2nc(O)cc(C(F)(F)F)n2)nc1` returned an IC50 in [3] greater than 30 µM.

Compound `CCOc1cc(C(F)(F)F)nc(-c2ccc(N)cn2)n1` yielded an IC50 in [3] greater than 30 µM.

`Cc1nc(-c2ccc(N)cn2)nc(O)c1C` returned an IC50 in series [3] greater than 30 µM.

Turning to `COc1cc(C(F)(F)F)nc(-c2ccc(NC(=O)CCl)cn2)n1`, the 50% inhibitory concentration (IC50) in series [1] is 15 µM; in series [3], 3.5 µM.

With `O=C(Nc1ccc(-c2nc(O)cc(C(F)(F)F)n2)nc1)C(F)(F)Cl`, the IC50 in series [3] is greater than 30 µM.

In turn, `Cc1nc(-c2ccc(N)cn2)nc(O)c1F` came in with an IC50 in series [3] greater than 30 µM.

Regarding `C=CCOc1nc(-c2ccc(NC(=O)CCl)cn2)nc(C)c1Cl`, the IC50 in series [1] came to 8 µM; in series [3], 1.5 µM.

On to `O=C(CCl)Nc1ccc(-c2nc(O)cc(CCl)n2)nc1`, for which the IC50 worked out at 5.5 µM in series [1] and 1.5 µM in [3].

For `Cc1nc(-c2ccc(NC(=O)CCl)cn2)[nH]c(=O)c1F`, the values for the IC50 in series [1] and in series [3] were 6 µM and 2 µM, respectively.

Consider `Cc1nc(-c2ccc(NC(=O)CCl)cn2)nc(O)c1Cc1ccccc1`, for which the IC50 was found to be 10 µM in [1] and 4 µM in [3].

In turn, `C=CCOc1nc(-c2ccc(N)cn2)nc(C)c1CC` yielded an IC50 in series [3] greater than 30 µM.

In [3], `C=CCOc1nc(-c2ccc(N)cn2)nc(C)c1Cl` registered a concentration for half-maximal inhibition (IC50) greater than 30 µM.

For the compound `CCc1c(C)nc(-c2ccc(NC(=O)CCl)cn2)nc1O`, the IC50 came out at 5.5 µM in series [1] and 1.5 µM in [3].

In the case of `C=CCOc1nc(-c2ccc(NC(=O)CCl)cn2)nc(C)c1CC`, the values for the IC50 in [1] and in series [3] were 22 µM and 1.8 µM, respectively.

For the compound `CC[C@@]1(O)C(=O)OCc2c1cc1n(c2=O)Cc2cc3c(CN(C)C)c(O)ccc3nc2-1` [TOPOTECAN], the IC50 in the series on DU-145 turned out to be 1.2 µM; with PC-3 [6] it was 1 µM; in the series on U-251 [7] it was 0.5 µM.

For `C=CCOc1cc(C(F)(F)F)nc(-c2ccc(N)cn2)n1`, in series [3], the half-inhibitory concentration (IC50) is greater than 30 µM.

In series [3], `Cc1nc(-c2ccc(N)cn2)nc(O)c1Cc1ccccc1` yielded an IC50 greater than 30 µM.

`Cc1nc(-c2ccc(NC(=O)CCl)cn2)nc(O)c1C`: the IC50 in [3] was greater than 30 µM.

As for `C=CCOc1cc(C(F)(F)F)nc(-c2ccc(NC(=O)CCl)cn2)n1`, the IC50 in series [1] was 30 µM; in series [3], 2 µM.

`CCOc1cc(C(F)(F)F)nc(-c2ccc(NC(=O)CCl)cn2)n1`: in series [3], the IC50 was found to be 8 µM.

In the case of `Cc1nc(-c2ccc(N)cn2)nc(O)c1Cl`, the IC50 in [3] is greater than 30 µM.

Consider `Nc1ccc(-c2nc(O)cc(CCl)n2)nc1`, for which the values for the 50% inhibitory concentration (IC50) in [1] and in series [3] were 22 µM and 6 µM, respectively.

Compound `Cc1nc(-c2ccc(NC(=O)CCl)cn2)[nH]c(=O)c1Cl` displayed an IC50 in series [3] of 5.5 µM.

`O=C(CCl)Nc1ccc(-c2nc(Cl)cc(C(F)(F)F)n2)nc1`: the results for the IC50 in series [1] and in [3] were 10 µM and 1.4 µM, respectively.

With `COc1cc(C(F)(F)F)nc(-c2ccc(N)cn2)n1`, in series [3], the IC50 is greater than 30 µM.

The values are drawn from ChEMBL document CHEMBL1268970, “Development of novel inhibitors targeting HIF-1α towards anticancer drug discovery” (Bioorg Med Chem Lett, 2010).
